This assay relates to human CTPS1 versus CTPS2. As to the kind of experiment: Human CTPS1 versus CTPS2 selectivity assessment by RapidFire/MS analysis. Format: biochemical. The note with it: Table 26. The method, then:
Biological Example 2—RapidFire/MS-Based Enzyme Selectivity Assays.
Human CTPS1 Versus CTPS2 Selectivity Assessment by RapidFire/MS Analysis.
The enzyme inhibitory activities against each target isoform of interest may be determined for the compounds of the invention using an optimised RapidFire high-throughput mass spectrometry (RF/MS) assay format. RF/MS assays for both human CTPS1 and CTPS2 may be performed in assay buffer consisting of 50 mM HEPES (Merck), 20 mM MgCl2, 5 mM KCl, 1 mM DTT, 0.01% Tween-20, pH to 8.0 accordingly. Human full-length active C-terminal FLAG-His-tag CTPS1 (UniProtKB-P17812, CTPS[1-591]-[…]) may be obtained from Proteros biostructures GmbH. Human full length active C-terminal FLAG-His-Avi tagged CTPS2 (UniProtKB-Q9NRF8, CTPS2 [1-586]-[…]) may be obtained from Harker Bio.
Human CTPS (1 or 2) protein may be prepared in 1× assay buffer to the final working protein concentration required for the reaction. A 2 uL volume per well of 2×CTPS (1 or 2) protein may be mixed with 40 nL of compound using acoustic (ECHO) delivery and incubated for 10 minutes at 25° C. Each isoform enzymatic reaction may be subsequently initiated by addition of 2 uL per well of a 2× substrate mix in assay buffer. For hCTPS1: ATP (0.3 mM), UTP (0.2 mM), GTP (0.07 mM) and L-glutamine (0.1 mM). For hCTPS2: ATP (0.1 mM), UTP (0.04 mM), GTP (0.03 mM) and L-glutamine (0.1 mM). Each mixture may be incubated for an appropriate amount of time per isoform within the determined linear phase of the reaction at 25° C. A 60 uL volume of stop solution (1% formic acid with 0.5 uM ^13C9-^15N3-CTP in H2O) may be added and the plate immediately heat-sealed and centrifuged for 10 minutes at 4,000 rpm. Following centrifugation, plates may be loaded onto the Agilent RapidFire microfluidic solid phase extraction system coupled to an AP14000 triple quadrupole mass spectrometer (RF/MS) for analysis.
In all cases, the enzyme converts UTP to CTP. Highly specific and sensitive multiple reaction monitoring (MRM) MS methods may be optimised for the detection of the enzymatic reaction product, CTP, and the stable isotope labelled product standard ^13C9-^15N3-CTP. Readout for data analysis may be calculated as the ratio between the peak area of the product CTP and the internal standard ^13C9-^15N3-CTP. For data reporting, the following equation may be used: […]
For each screening plate, the means of the negative (DMSO) and positive control values were used for the calculation of the respective assay window (S/B) and Z′ values. The median of the respective control values was used for calculation of percent inhibition according to the following equation: […]
Percentage inhibition was then plotted against compound concentration, and the 50% inhibitory concentration (IC50) was determined from the resultant concentration-response curve.
Fold selectivity between CTPS1 and CTPS2 was subsequently calculated according to the following equation: […]
With `CCC(C(=O)Nc1ccc(-c2cncc(C(F)(F)F)n2)cn1)c1ccnc(NS(=O)(=O)C2CC2)n1` (stereo not drawn) [Example P87], the “Selectivity (fold selectivity between CTPS1 and CTPS2)” value is given as “++ (>30-60 fold (++))”. Take `CCOc1cncc(-c2ccc(NC(=O)C(CC)c3ccnc(NS(=O)(=O)C4CC4)n3)nc2)n1` (stereo not drawn) [Example P88]: the “Selectivity (fold selectivity between CTPS1 and CTPS2)” value is “+++ (>60 fold (+++))”. Take `CCOc1cncc(-c2ccc(NC(=O)C(CC)c3ccnc(NS(=O)(=O)C4CC4)n3)c(F)c2)n1` (stereo not drawn) [Example P96]: the “Selectivity (fold selectivity between CTPS1 and CTPS2)” value is listed as “+ (2-30 fold (+))”.

Turning to `CCC(C(=O)Nc1ccc(-c2cncc(OCC(F)(F)F)n2)cc1F)c1ccnc(NS(=O)(=O)C2CC2)n1` (stereo not drawn) [Example P98], the “Selectivity (fold selectivity between CTPS1 and CTPS2)” value was “+++ (>60 fold (+++))”. Turning to `CCOc1cncc(-c2ccc(NC(=O)C(F)(CC)c3ccnc(NS(=O)(=O)C4CC4)n3)nc2)n1` (single isomer, unassigned) [Example P113, 2-(2-(cyclopropanesulfonamido)pyrimidin-4-yl)-N-(5-(6-ethoxypyrazin-2-yl)pyridin-2-yl)-2-fluorobutanamide], the “Selectivity (fold selectivity between CTPS1 and CTPS2)” value was “+ (2-30 fold (+))”. The result for `CCOc1cncc(-c2ccc(NC(=O)C(C)(OC)c3cncc(NS(=O)(=O)C4CC4)n3)nc2)n1` (stereo not drawn) [Example P205b] reads “++ (>30-60 fold (++))”. As for `CCC(C(=O)Nc1ccc(-c2cncc(Cl)c2)cc1)c1ccnc(NS(=O)(=O)C2CC2)n1` (stereo not drawn) [Example P1, N-(4-(5-Chloropyridin-3-yl)phenyl)-2-(2-(cyclopropanesulfonamido)pyrimidin-4-yl)butanamide], the “Selectivity (fold selectivity between CTPS1 and CTPS2)” value was “+ (2-30 fold (+))”.

For `CCOc1cncc(-c2ccc(NC(=O)C(F)(CC)c3ccnc(NS(=O)(=O)C4CC4)n3)nc2)n1` (single isomer, unassigned) [Example P114, 2-(2-(cyclopropanesulfonamido)pyrimidin-4-yl)-N-(5-(6-ethoxypyrazin-2-yl)pyridin-2-yl)-2-fluorobutanamide], the “Selectivity (fold selectivity between CTPS1 and CTPS2)” value was “+++ (>60 fold (+++))”.

In the case of `CCC(C(=O)Nc1ccc(-c2cncc(OC)n2)cc1F)c1ccnc(NS(=O)(=O)C2CC2)n1` (stereo not drawn) [Example P95], the “Selectivity (fold selectivity between CTPS1 and CTPS2)” value is recorded as “+ (2-30 fold (+))”. The result for `CCOc1cncc(-c2ccc(NC(=O)C(CC)c3cccc(NS(=O)(=O)C4CC4)n3)cc2)n1` (stereo not drawn) [Example P191] reads “++ (>30-60 fold (++))”; that for `CCOc1cncc(-c2ccc(NC(=O)C(CC)c3cncc(NS(=O)(=O)C4CC4)n3)cc2)n1` (stereo not drawn) [Example P202], “+++ (>60 fold (+++))”; that for `CCOc1cncc(-c2ccc(NC(=O)C(F)(CC)c3cncc(NS(=O)(=O)C4CC4)n3)nc2)n1` (stereo not drawn) [Example P200], “++ (>30-60 fold (++))”. The result for `CC(C)Oc1cncc(-c2ccc(NC(=O)C(C)(C)c3ccnc(NS(=O)(=O)C4CC4)n3)nc2)n1` [Example P9] reads “+++ (>60 fold (+++))”; that for `CCOc1cncc(-c2ccc(C(=O)NC(CC)c3ccnc(NS(=O)(=O)C4CC4)n3)c(F)c2)n1` (stereo not drawn) [Example P216], “+++ (>60 fold (+++))”. As to `CCC(C(=O)Nc1ccc(-c2cncc(OC(C)C)n2)cn1)c1ccnc(NS(=O)(=O)C2CC2)n1` (stereo not drawn) [Example P89], the “Selectivity (fold selectivity between CTPS1 and CTPS2)” value is given as “+++ (>60 fold (+++))”. In the case of `CCOc1cncc(-c2ccc(NC(=O)C(C)(OC)c3cncc(NS(=O)(=O)C4CC4)n3)nc2)n1` (stereo not drawn) [Example P205a] it was “+++ (>60 fold (+++))”. Consider `CCOc1cncc(-c2ccc(NC(=O)C(F)(CC)c3cncc(NS(=O)(=O)C4CC4)n3)nc2)n1` (single isomer, unassigned) [Example P207], for which the “Selectivity (fold selectivity between CTPS1 and CTPS2)” value is reported as “+ (2-30 fold (+))”. Regarding `CCOc1cncc(-c2ccc(NC(=O)C(CCOC)c3ccnc(NS(=O)(=O)C4CC4)n3)cc2)n1` (stereo not drawn) [Example P110], the “Selectivity (fold selectivity between CTPS1 and CTPS2)” value is “++ (>30-60 fold (++))”.

The values are drawn from US20230002352A1, “SULFONAMIDE DERIVATIVES AS CTPS1 INHIBITORS” (Step Pharma S.A.S., priority 2019, published 2023).
